Assay results: patent publication US12595251B2, “Amidines and amidine analogs for the treatment of bacterial infections and potentiation antibiotics” (GEORGIA STATE UNIVERSITY RESEARCH FOUNDATION, INC., priority 2018, dated 2026)
Where two headings read alike, the source gives them in different places.

Experiments:
[1] = system: MRSA; test: Sensitization of MRSA to erythromycin (sensitization fold from IC90); format: cell-based, Staphylococcus aureus; settings: for SF (MRSA) at 4 μM: compound at 4 μM
Procedure: MRSA bacteria were cultured in nutrient broth at 37° C. overnight prior to treatment. […] Bacterial density was measured based on OD600.

[2] = system: MRSA; test: MIC of compounds against MRSA (OD600, 48 h); format: cell-based; settings: Staphylococcus aureus; for MIC: MIC = 90% growth inhibition, compound alone, 48 h
Procedure: Bacteria were then cultured with varying concentration of the compounds shown below for 48 hours, and then bacterial density was measured based on OD600. The minimum inhibitory concentration (MIC, 90% growth inhibition) was calculated for each compound, as shown in Table 4 (NA=no activity; --=not measured).

[3] = system: E. coli; test: Sensitization of E. coli to erythromycin (sensitization fold from IC90, OD600, 20 h); format: cell-based, Escherichia coli; settings: erythromycin, NA=no activity; for SF (E. coli) at 12.5 μM: compound at 12.5 μM; for SF (E. coli) at 12 μM: compound at 12 μM; for SF (E. coli) at 25 μM: compound at 25 μM
Procedure: (§1) E. coli bacteria were cultured in Miller's broth at 37° C. overnight prior to treatment. B. subtilis bacteria were cultured in nutrient broth at 37° C. overnight prior to treatment. […] Bacterial density was measured based on OD600.

[4] = system: B. subtilis; test: Sensitization of B. subtilis to erythromycin (sensitization fold from IC90, OD600, 20 h); format: cell-based, Bacillus subtilis; settings: for SF (B. subtilis) at 6 μM: compound at 6 μM; for SF (B. subtilis) at 12 μM: compound at 12 μM
Procedure: as §1

[5] = system: wild-type E. coli; test: Sensitization of wild-type E. coli toward antibiotics (MIC of antibiotic with/without sensitizer); format: cell-based, Escherichia coli; settings: wild-type E. coli; for MIC: Escherichia coli, antibiotic alone, read-out: MIC of AB only; for MIC of AB with Compound C (5 μg/ml) / FIC: antibiotic plus Compound C 5 μg/ml; for FIC: fractional inhibitory concentration
Procedure: Bacteria were cultured with the antibiotic at various concentrations in the presence or absence of bacterial sensitizer for 24 hours at 37° C. Bacterial growth density was determined by measuring OD600 (absorbance measured at a wavelength of 600 nm). […]
The formula for calculating FIC is shown below: […]

[6] = system: NDM-1 over-expressing E. coli; test: microbe, parasite or virus in culture; format: cell-based, Escherichia coli; settings: for MIC: Escherichia coli; for Sensitization fold: MIC of antibiotic only / MIC with Compound C 5 μg/ml; for FIC / MIC of AB with Compound C (5 μg/ml): antibiotic plus Compound C 5 μg/ml
[7] = antibiotic alone, read-out: MIC of AB only

Cc1cc(CCc2ccc(C(=N)N)cc2)cc(CCc2ccc(C(=N)N)cc2)c1 [drawing 838]
SF (MRSA) at 3 μM ([1]; compound at 3 μM): 16-fold at 3 μM | MIC [2]: 12 µM

Cc1cc(COc2ccc(C(=N)N)cc2F)cc(COc2ccc(C(=N)N)cc2F)c1 [drawing 846]
MIC [2]: 12 µM | inhibition at 6 µM ([2]; read-out: Growth inhibition of MRSA at 6 μM, compound alone at 6 μM, NA=no activity): 20%

Cc1cc(CSc2ccc(C(=N)N)cc2)cc(CSc2ccc(C(=N)N)cc2)c1 [drawing 744]
SF (E. coli) at 12.5 μM [3]: 32 fold | SF (B. subtilis) at 6 μM ([4]; erythromycin, NA=no activity): 32 fold

CC(C)(C)c1cc(COc2ccc(C(=N)N)cc2F)cc(COc2ccc(C(=N)N)cc2F)c1 [drawing 742]
SF (E. coli) at 6 μM ([3]; compound at 6 μM): 4 fold | SF (E. coli) at 12 μM [3]: 32 fold | SF (B. subtilis) at 3 μM ([4]; erythromycin, compound at 3 μM): 2 fold | SF (B. subtilis) at 6 μM ([4]; erythromycin, NA=no activity): 8 fold

Cc1cc(COc2ccc(C(=N)N)cc2)cc(COc2ccc(C(=N)N)cc2)c1 [drawing 834]
SF (MRSA) at 6 μM ([1]; compound at 6 μM): 32-fold at 6 μM | MIC [2]: 25 µM

CC(C)NC(=N)c1ccc(OCc2cccc(COc3ccc(C(=N)NC(C)C)cc3)c2F)cc1 [drawing 839]
SF (MRSA) at 4 μM [1]: 16-fold at 4 μM | MIC [2]: 12.5 µM

Cc1cc(COc2cccc(C(=N)N)c2)cc(COc2cccc(C(=N)N)c2)c1 [drawing 743]
SF (E. coli) at 12 μM [3]: 2 fold | SF (E. coli) at 25 μM [3]: 8 fold | SF (B. subtilis) at 6 μM ([4]; erythromycin, NA=no activity): 8 fold | SF (B. subtilis) at 12 μM ([4]; erythromycin, NA=no activity): 32 fold

Cc1cc(COc2ccc(C3=NCCN3)cc2)cc(COc2ccc(C3=NCCN3)cc2)c1 [drawing 723]
SF (B. subtilis) ([4]; sensitization fold = IC90 of erythromycin without/with compound, compound concentration not given, NA=no activity, T=toxic): >4

CCCNC(=N)c1ccc(COc2cc(C)cc(OCc3ccc(C(=N)NCCC)cc3)c2)cc1 [drawing 841]
SF (MRSA) at 12 μM ([1]; compound at 12 μM, NA=no activity): 8 fold | SF (MRSA) at 25 μM ([1]; compound at 25 μM, NA=no activity): 8-16 fold | inhibition at 25 µM ([2]; read-out: Growth inhibition of MRSA at 25 μM, compound alone at 25 μM, NA=no activity): 30%

O=C(N[C@H](CO)[C@H](O)c1ccc([N+](=O)[O-])cc1)C(Cl)Cl [Chloramphenicol, chloramphenicol]
MIC ([5]; 24 h): 12.5 µg/mL | MIC of AB with Compound C (5 μg/ml) [5]: 1.5 µg/mL | FIC [5]: 0.22 | MIC [6, 7]: 6.25 µg/mL | Sensitization fold [6]: 8 | FIC [6]: 0.22 | MIC of AB with Compound C (5 μg/ml) [6]: 0.8 µg/mL

CO[C@@H]1[C@@H](OC(N)=O)[C@@H](O)[C@H](Oc2ccc3c(O)c(NC(=O)c4ccc(O)c(CC=C(C)C)c4)c(=O)oc3c2C)OC1(C)C [Novobiocin, novobiocin]
MIC [5]: 100 µg/mL | MIC of AB with Compound C (5 μg/ml) [5]: 1.5 µg/mL | FIC [5]: 0.12 | MIC [6, 7]: 50 µg/mL | MIC ([6]; read-out: MIC of AB with Compound C (5 μg/ml), antibiotic plus Compound C 5 μg/ml): 1.6 µg/mL | Sensitization fold [6]: 32 | FIC [6]: 0.13

CCC[C@@H]1C[C@@H](C(=O)N[C@@H]([C@H]2O[C@H](SC)[C@H](O)[C@@H](O)[C@H]2O)[C@H](C)Cl)N(C)C1 [Clindamycin, clindamycin]
MIC ([5]; 24 h): 250 µg/mL | MIC of AB with Compound C (5 μg/ml) [5]: 4 µg/mL | FIC [5]: 0.12 | MIC [6, 7]: 250 µg/mL | FIC [6]: 0.12 | MIC of AB with Compound C (5 μg/ml) [6]: 4 µg/mL

Cc1cc(COc2ccc(C(=N)NC(C)C)cc2)cc(COc2ccc(C(=N)NC(C)C)cc2)c1 [drawing 835]
SF (MRSA) at 4 μM [1]: 32-fold at 4 μM | MIC [2]: 25 µM

Cc1ccc(COc2ccc(C(=N)N)cc2)cc1COc1ccc(C(=N)N)cc1 [drawing 746]
SF (E. coli) at 12.5 μM [3]: 4 fold | SF (E. coli) at 25 μM [3]: 32 fold | SF (B. subtilis) at 6 μM ([4]; erythromycin, NA=no activity): 16 fold | SF (B. subtilis) at 12 μM ([4]; erythromycin, NA=no activity): 32 fold
